Experimental data published in US7037645B2, “Methods for identification of CDS8+ suppressor molecules” (priority 2000, dated 2006).
Where two headings read alike, the source gives them in different places.

System: CXCR4 dependent pseudotyped virus (NL4-3)
Assay: Single cycle HIV infection assay, pseudotyped luciferase reporter virus, time of addition
Conditions: for inhibition of pseudotyped virus expression: all time points of addition, 0.2 μM; for activity at 0.2 µM: read-out: viral infection level, % of control levels

| SMILES | inhibition of pseudotyped virus expression | inhibition of pseudotyped virus expression (listed as protease inhibitor) | activity at 0.2 µM (Human immunodeficiency virus 1, NL43, 10 h) [%] | activity at 0.2 µM (Human immunodeficiency virus 1, NL43, 14 h) [%] | time post virus exposure within which addition suppresses pseudotyped virus replication (time of addition, DP178 20 μg/ml, mAb#19 20 μg/ml, nevirapine 0.2 μM, Tat inhibitor 50 μM) |
| --- | --- | --- | --- | --- | --- |
| Cc1c(O)cccc1C(=O)N[C@@H](CSc1ccccc1)[C@H](O)CN1C[C@H]2CCCC[C@H]2C[C@H]1C(=O)NC(C)(C)C [nelfinavir] | ineffectual | does not, therefore, inhibit |  |  |  |
| Cc1ccnc2c1NC(=O)c1cccnc1N2C1CC1 [nevirapine] |  |  | 67 | 85 | approximately 10 hours |
